# Data as given in US20240067637A1, “NAPHTHYRIDINE AND PYRIDO[3,4-c]PYRIDAZINE DERIVATIVES AS GABAA ALPHA 5 RECEPTOR MODULATORS” (Richter Gedeon Nyrt., priority 2020, published 2024).
# Target: human recombinant GABAA α5β3γ2 receptor (Homo sapiens (Human), UniProt P18507+P31644)
# Assay: Radioligand ([3H]Ro151788) receptor binding assay
# Details: membranes of HEK cells expressing human recombinant GABAA α5β3γ2; 0.5 nM [3H]Ro151788; 60 minutes at 4° C.; read-out: hGABAA α5 Ki
# Protocol: The GABAA α5β3γ2 protein used for the receptor binding assay was derived from membranes produced from HEK cells (Millipore CYL3073) expressing the human recombinant GABAA α5β3γ2 receptor. Cells were stored and cultured in-house according to the instructions provided by the vendor (Millipore). Cell pellet was homogenized in 10 times modified Krebs Henseleit buffer (membrane preparation buffer): 20 mM Tris, 120 mM NaCl, 100 mM KCl, 25 mM CaCl2 and 25 mM MgCl2 pH=7.4 at 4° C. using Ultra Turrax (Janke&Kunkel) maximal speed for 15 seconds. The homogenate was centrifuged at 40,000 g for 30 minutes at 4° C. Supernatant was discarded and the resulting pellet was washed in membrane preparation buffer. Pellet was resuspended in membrane preparation buffer and aliquots of 1.4 mL ampules were stored at −70° C. until use.
# Receptor binding assays were performed in 96-well format in deep-well plates. For each 96-well plate one ampule of membrane homogenate was thawed and diluted in binding buffer (50 mM Tris pH=7.4, 100 mM KCl) and 200 μL was dispensed into each well. Radioligand [^3H]Ro151788 (Perkin Elmer: NET757250UC) was prepared in binding buffer and added to each well in 50 μL volume to give final concentration of 0.5 nM. Test compounds in suitable concentration(s) were added in additional 50 μL. The final assay volume was 300 μL. Incubation was carried out for 60 minutes at 4° C. For non-specific binding 10 μM unlabeled diazepam was used. After incubation samples were filtered over UniFilter® GF/BT using Filtermate Harvester (Perkin Elmer) and washed with 5×1 mL binding buffer. The plate was dried at 40° C. for an hour and 40 μL Microscint (Perkin Elmer) scintillation cocktail was added to each well. The plate was read in Microbeta (Perkin Elmer).
# The specific radioligand binding (SB) was defined as the difference between total binding (Tot) and the non-specific binding (NSB). Results are expressed as a percent inhibition of specific binding obtained in the presence of compound of interest.
# For IC50 and Ki determination a minimum of six drug concentrations in triplicate were used. IC50 values (i.e. concentration of compound giving 50% inhibition of specific binding) were calculated from concentration-displacement curves by sigmoidal fitting using Origin 7.5 software. Ki values (i.e. inhibition constants) were calculated using the Cheng-Prusoff equation Ki=IC50/[1+(L/KD)], where [L] is the radioligand concentration and KD the affinity of the labelled ligand for receptor. KD was determined from the Saturation analyses.
# Sequence of human recombinant GABAA α5β3γ2 receptor (P31644 32-462): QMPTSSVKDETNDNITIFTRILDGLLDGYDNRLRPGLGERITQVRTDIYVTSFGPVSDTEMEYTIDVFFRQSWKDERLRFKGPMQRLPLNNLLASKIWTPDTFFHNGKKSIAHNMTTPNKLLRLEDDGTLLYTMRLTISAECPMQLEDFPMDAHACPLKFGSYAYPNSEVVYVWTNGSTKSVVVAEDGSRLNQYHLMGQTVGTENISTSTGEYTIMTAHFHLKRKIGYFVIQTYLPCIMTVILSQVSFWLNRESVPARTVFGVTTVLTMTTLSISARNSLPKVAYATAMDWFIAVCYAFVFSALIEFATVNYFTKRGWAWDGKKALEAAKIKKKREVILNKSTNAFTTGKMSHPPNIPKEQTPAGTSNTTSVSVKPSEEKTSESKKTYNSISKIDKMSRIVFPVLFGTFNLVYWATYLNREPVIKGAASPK
# Sequence of human recombinant GABAA α5β3γ2 receptor (P28472 26-473 partner): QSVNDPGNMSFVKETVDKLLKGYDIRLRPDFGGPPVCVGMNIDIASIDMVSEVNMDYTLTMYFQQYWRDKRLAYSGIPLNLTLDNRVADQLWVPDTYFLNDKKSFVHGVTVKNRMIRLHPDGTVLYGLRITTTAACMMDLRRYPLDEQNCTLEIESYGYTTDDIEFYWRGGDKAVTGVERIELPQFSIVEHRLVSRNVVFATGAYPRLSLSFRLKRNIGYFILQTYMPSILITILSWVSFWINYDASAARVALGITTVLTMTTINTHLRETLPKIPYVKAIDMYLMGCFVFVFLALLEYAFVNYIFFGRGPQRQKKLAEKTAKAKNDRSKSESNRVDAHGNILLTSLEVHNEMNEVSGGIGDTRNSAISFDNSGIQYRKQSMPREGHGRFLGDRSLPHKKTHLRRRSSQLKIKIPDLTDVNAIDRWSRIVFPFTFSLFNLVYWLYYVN
# Sequence of human recombinant GABAA α5β3γ2 receptor (P18507 40-475): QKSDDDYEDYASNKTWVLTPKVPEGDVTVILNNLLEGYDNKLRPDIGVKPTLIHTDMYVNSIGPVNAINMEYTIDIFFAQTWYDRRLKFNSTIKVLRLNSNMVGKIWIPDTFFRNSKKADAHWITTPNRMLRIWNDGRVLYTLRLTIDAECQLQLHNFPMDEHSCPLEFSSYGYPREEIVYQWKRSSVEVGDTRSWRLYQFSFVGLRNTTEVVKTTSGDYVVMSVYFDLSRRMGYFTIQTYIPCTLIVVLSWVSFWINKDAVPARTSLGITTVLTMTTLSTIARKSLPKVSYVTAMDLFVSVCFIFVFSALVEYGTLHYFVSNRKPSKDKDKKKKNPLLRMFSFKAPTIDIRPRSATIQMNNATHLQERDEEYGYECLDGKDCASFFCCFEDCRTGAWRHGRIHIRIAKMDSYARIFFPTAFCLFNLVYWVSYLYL
row,SMILES,Ki [nM]
1,"Cc1ccc(-c2noc(C)c2COc2cc3c(cn2)CN(C(=O)C2CC(=O)N(C)C2)CC3)cn1 (stereo not shown) [Example 15, 1-methyl-4-(6-{[5-methyl-3-(6-methylpyridin-3-yl)-1,2-oxazol-4-yl]methoxy}-1,2,3,4-tetrahydro-2,7-naphthyridine-2-carbonyl)pyrrolidin-2-one]",8.3
2,"Cc1ccc(-c2noc(C)c2COc2cc3c(cn2)CN(C(=O)C2CCOCC2)CC3)cn1 [Example 10, 6-{[5-methyl-3-(6-methylpyridin-3-yl)-1,2-oxazol-4-yl]methoxy}-2-(oxane-4-carbonyl)-1,2,3,4-tetrahydro-2,7-naphthyridine]",17
3,"Cc1ccc(-c2noc(C)c2COc2cc3c(cn2)CN(C(=O)CS(C)(=O)=O)CC3)cn1 [Example 5, 2-methanesulfonyl-1-(6-{[5-methyl-3-(6-methylpyridin-3-yl)-1,2-oxazol-4-yl]methoxy}-1,2,3,4-tetrahydro-2,7-naphthyridin-2-yl)ethan-1-one]",3.5
4,"Cc1nnn(-c2ccc(C(F)F)nc2)c1COc1cc2c(cn1)CN(C(=O)CF)CC2 [Example 57, 2-fluoro-1-[6-({4-methyl-1-[6-(difluoromethyl)pyridin-3-yl]-1H-1,2,3-triazol-5-yl}methoxy)-1,2,3,4-tetrahydro-2,7-naphthyridin-2-yl]ethan-1-one]",0.9
5,"Cc1ccc(-n2nnc(C)c2COc2cc3c(cn2)CN(C(=O)CF)CC3)cn1 [Example 38, 2-fluoro-1-(6-{[4-methyl-1-(6-methylpyridin-3-yl)-1H-1,2,3-triazol-5-yl]methoxy}-1,2,3,4-tetrahydro-2,7-naphthyridin-2-yl)ethan-1-one]",6.6
6,"Cc1ccc(-c2noc(C)c2COc2cc3c(nn2)CN(C(=O)CF)CC3)cn1 [Example 30, 2-fluoro-1-(3-{[5-methyl-3-(6-methylpyridin-3-yl)-1,2-oxazol-4-yl]methoxy}-5H,6H,7H,8H-pyrido[3,4-c]pyridazin-7-yl)ethan-1-one]",1.9
7,"CCN1CC(C(=O)N2CCc3cc(OCc4c(-c5ccc(C)nc5)noc4C)ncc3C2)CC1=O (stereo not shown) [Example 23, 1-ethyl-4-(6-{[5-methyl-3-(6-methylpyridin-3-yl)-1,2-oxazol-4-yl]methoxy}-1,2,3,4-tetrahydro-2,7-naphthyridine-2-carbonyl)pyrrolidin-2-one]",6.9
8,"Cc1ccc(-c2noc(C)c2COc2cc3c(nn2)CN(C(=O)N2CCOCC2)CC3)cn1 [Example 26, 4-(3-{[5-methyl-3-(6-methylpyridin-3-yl)-1,2-oxazol-4-yl]methoxy}-5H,6H,7H,8H-pyrido[3,4-c]pyridazine-7-carbonyl)morpholine]",13
9,"Cc1ccc(-c2noc(C)c2COc2cc3c(cn2)CN(C(=O)C2CCS(=O)(=O)CC2)CC3)cn1 [Example 8, 4-(6-{[5-methyl-3-(6-methylpyridin-3-yl)-1,2-oxazol-4-yl]methoxy}-1,2,3,4-tetrahydro-2,7-naphthyridine-2-carbonyl)-1lambda6-thiane-1,1-dione]",16
10,"Cc1ccc(-c2nnn(C)c2COc2cc3c(cn2)CN(C(=O)CF)CC3)cn1 [Example 68, 2-fluoro-1-(6-{[1-methyl-4-(6-methylpyridin-3-yl)-1H-1,2,3-triazol-5-yl]methoxy}-1,2,3,4-tetrahydro-2,7-naphthyridin-2-yl)ethan-1-one]",9.1
11,"Cc1ccc(-c2noc(C)c2COc2cc3c(cn2)CN(C(=O)[C@@H]2CCC(=O)N2C)CC3)cn1 [Example 22, (5S)-1-methyl-5-(6-{[5-methyl-3-(6-methylpyridin-3-yl)-1,2-oxazol-4-yl]methoxy}-1,2,3,4-tetrahydro-2,7-naphthyridine-2-carbonyl)pyrrolidin-2-one]",9.4
12,"Cc1ccc(-c2noc(C)c2COc2cc3c(nn2)CN(C(=O)C2CCOCC2)CC3)cn1 [Example 27, 2-methyl-5-[5-methyl-4-({[7-(oxane-4-carbonyl)-5H,6H,7H,8H-pyrido[3,4-c]pyridazin-3-yl]oxy}methyl)-1,2-oxazol-3-yl]pyridine]",10
13,"CC(=O)N1CCc2cc(OCc3c(-c4ccc(C)nc4)noc3C)ncc2C1 [Example 1, 1-[6-{[5-methyl-3-(6-methylpyridin-3-yl)-1,2-oxazol-4-yl]methoxy}-3,4-dihydro-2,7-naphthyridin-2(1H)-yl]ethanone]",1.7
14,"Cc1ccc(-c2noc(C)c2COc2cc3c(cn2)CN(C(=O)OC(C)(C)C)CC3)cn1 [Example 2, tert-butyl 6-{[5-methyl-3-(6-methylpyridin-3-yl)-1,2-oxazol-4-yl]methoxyl}-1,2,3,4-tetrahydro-2,7-naphthyridine-2-carboxylate]",38

# More lines, now with the values ahead:
row,Ki [nM],SMILES
1,33,"CCC(=O)N1CCc2cc(OCc3c(-c4ccc(C)nc4)nnn3C)ncc2C1 [Example 62, 1-(6-{[1-methyl-4-(6-methylpyridin-3-yl)-1H-1,2,3-triazol-5-yl]methoxy}-1,2,3,4-tetrahydro-2,7-naphthyridin-2-yl)propan-1-one]"
2,31,"Cc1nnn(-c2ccc(C(F)(F)F)nc2)c1COc1cc2c(cn1)CN(C(=O)C1CC1)CC2 [Example 51, 2-cyclopropanecarbonyl-6-({4-methyl-1-[6-(trifluoromethyl)pyridin-3-yl]-1H-1,2,3-triazol-5-yl}methoxy)-1,2,3,4-tetrahydro-2,7-naphthyridine]"
3,4.4,"Cc1ccc(-c2noc(C)c2COc2cc3c(nn2)CN(C(=O)C2CC2)CC3)cn1 [Example 28, 5-{4-[({7-cyclopropanecarbonyl-5H,6H,7H,8H-pyrido[3,4-c]pyridazin-3-yl}oxy)methyl]-5-methyl-1,2-oxazol-3-yl}-2-methylpyridine]"
4,20,"CCC(=O)N1CCc2cc(OCc3c(C)nnn3-c3ccc(C)nc3)ncc2C1 [Example 43, 1-(6-{[4-methyl-1-(6-methylpyridin-3-yl)-1H-1,2,3-triazol-5-yl]methoxy}-1,2,3,4-tetrahydro-2,7-naphthyridin-2-yl)propan-1-one]"
5,43,"Cc1ccc(-c2nnn(C)c2COc2cc3c(cn2)CN(C(=O)C(C)C)CC3)cn1 [Example 63, 2-methyl-1-(6-{[1-methyl-4-(6-methylpyridin-3-yl)-1H-1,2,3-triazol-5-yl]methoxy}-1,2,3,4-tetrahydro-2,7-naphthyridin-2-yl)propan-1-one]"
6,30,"Cc1ccc(-n2nnc(C)c2COc2cc3c(cn2)CN(C(=O)C(C)C)CC3)cn1 [Example 39, 2-methyl-1-(6-{[4-methyl-1-(6-methylpyridin-3-yl)-1H-1,2,3-triazol-5-yl]methoxy}-1,2,3,4-tetrahydro-2,7-naphthyridin-2-yl)propan-1-one]"
7,1.6,"CCC(=O)N1CCc2cc(OCc3c(C)nnn3-c3ccc(C(F)F)nc3)ncc2C1 [Example 56, 1-[6-({1-[6-(difluoromethyl)pyridin-3-yl]-4-methyl-1H-1,2,3-triazol-5-yl}methoxy)-3,4 dihydro-2,7-naphthyridin-2(1H)-yl]propan-1-one]"
8,52,"Cc1ccc(-c2nnn(C)c2COc2cc3c(cn2)CN(C(=O)C2CC2)CC3)cn1 [Example 65, 2-cyclopropanecarbonyl-6-{[1-methyl-4-(6-methylpyridin-3-yl)-1H-1,2,3-triazol-5-yl]methoxy}-1,2,3,4-tetrahydro-2,7-naphthyridine]"
